Reference: PubChem BioAssay (NCI)
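Method: 48-hour compound exposure of cells in 96-well plates, five concentrations, linear interpolation of endpoints. Here, GI50 denotes the concentration required for 50% inhibition of growth. The concentration for full growth arrest is given as TGI.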

Assays:
Experiment in all cases: DTP human tumour cell line panel, 48 h
[1] = test system: COLO 205 colon
[2] = test system: RXF 393 renal
[3] = test system: SF-539 CNS
[4] = test system: SK-OV-3 ovarian
[5] = test system: HCT-116 colon
[6] = test system: SF-268 CNS
[7] = test system: OVCAR-8 ovarian
[8] = test system: DMS 273 small cell lung
[9] = test system: SNB-78 CNS
[10] = test system: MDA-MB-435

## COC(=O)C1CCc2c1c(=O)n1c([nH]c3ccccc31)c2C#N (stereo unspecified)
[1]
  TGI: > 100 µM
[2]
  TGI: > 100 µM
[3]
  TGI: > 100 µM
[4]
  TGI: > 100 µM
[5]
  TGI: > 100 µM
[6]
  TGI: > 100 µM
[7]
  TGI: > 100 µM
[8]
  TGI: > 100 µM
[9]
  TGI: > 100 µM

## COc1ccc(NC(=O)C(=O)c2c(O)c3ccc(O)cc3oc2=O)c([N+](=O)[O-])c1
[1]
  TGI: > 100 µM
[2]
  TGI: > 100 µM
[3]
  TGI: > 100 µM
[4]
  TGI: > 100 µM
[5]
  TGI: > 100 µM
[6]
  TGI: > 100 µM
[8]
  TGI: > 100 µM

## COc1ccc(C/C(=N/O)C(=O)NCCc2cc(Br)c(OCCCN(C)C)c(Br)c2)cc1Br
[1]
  TGI: 40.2 µM
[2]
  TGI: 38.5 µM
[3]
  TGI: 29.6 µM
[5]
  TGI: 28 µM
[6]
  TGI: 39.4 µM
[7]
  TGI: 49.1 µM
[8]
  TGI: 7.61 µM
[9]
  TGI: 68.4 µM

## C[C@@H](NC1CCCC[C@H]1O)c1ccccc1 (stereo partly specified)
[1]
  TGI: > 100 µM
[2]
  TGI: > 100 µM
[3]
  TGI: > 100 µM
[4]
  TGI: > 100 µM
[5]
  TGI: > 100 µM
[6]
  TGI: > 100 µM
[7]
  TGI: > 100 µM
[8]
  TGI: > 100 µM
[9]
  TGI: > 100 µM

## COC(=O)CC(NC(=O)OCc1ccccc1)C(C(C)=O)C(=O)OCc1ccccc1 (stereo unspecified)
[1]
  TGI: > 31.6 µM
[3]
  TGI: > 31.6 µM
[4]
  TGI: > 31.6 µM
[5]
  TGI: > 31.6 µM
[6]
  TGI: > 31.6 µM
[7]
  TGI: > 31.6 µM
[8]
  TGI: > 31.6 µM
[9]
  TGI: > 31.6 µM

## O=C(c1ccccc1)c1c(CC(O)c2ccccn2)n(C(=O)c2ccccc2)c2ccccc12 (stereo unspecified)
[1]
  TGI: 50.5 µM
[3]
  TGI: 31.5 µM
[5]
  TGI: 27.8 µM
[6]
  TGI: > 100 µM
[7]
  TGI: 95.8 µM
[8]
  TGI: 58.3 µM

## CC1=Nc2ccccc2S/C1=C(/C)NNS(=O)(=O)c1ccc(C)cc1
[1]
  TGI: > 100 µM
[2]
  TGI: > 100 µM
[3]
  TGI: > 100 µM
[4]
  TGI: > 100 µM
[5]
  TGI: > 100 µM
[6]
  TGI: > 100 µM
[7]
  TGI: > 100 µM
[8]
  TGI: > 100 µM
[9]
  TGI: > 100 µM

## CCN(CC)C(=O)Cc1c(C(=O)N(CC)CC)c(=O)nc2sccn12
[1]
  TGI: > 100 µM
[2]
  TGI: > 100 µM
[3]
  TGI: > 100 µM
[4]
  TGI: > 100 µM
[5]
  TGI: > 100 µM
[6]
  TGI: > 100 µM
[7]
  TGI: > 100 µM
[8]
  TGI: > 100 µM

## CC(C)(O)[C@@H]1CC[C@@]2(C)CCCC(O)C2(O)C1 (stereo partly specified)
[1]
  TGI: > 100 µM
[3]
  TGI: > 100 µM
[4]
  TGI: > 100 µM
[5]
  TGI: > 100 µM
[6]
  TGI: > 100 µM
[7]
  TGI: > 100 µM
[8]
  TGI: > 100 µM

## CC(=O)O[C@H]1C(=O)[C@@]2(C)C(C(OC(=O)c3ccccc3)[C@]3(O)C[C@H](OC(=O)C(OC(=O)CCCC(=O)NCCCN(C)C)C(NC(=O)c4ccccc4)c4ccccc4)C(C)=C1C3(C)C)C1(OC(C)=O)COC1C[C@@H]2O (stereo partly specified)
[1]
  TGI: 0.0147 µM
[2]
  TGI: 3.27 µM
[3]
  TGI: 0.0184 µM
[4]
  TGI: 1.45 µM
[5]
  TGI: 1.53 µM
[6]
  TGI: 75.3 µM
[7]
  TGI: 15.3 µM
[8]
  TGI: 0.553 µM
[9]
  TGI: 96.8 µM

## CCC(C)CCOC(=O)c1ccc(N=Cc2ccc(C=Nc3ccc(C(=O)OCCC(C)CC)cc3)cc2)cc1 (stereo unspecified)
[1]
  TGI: > 100 µM
[2]
  TGI: > 100 µM
[3]
  TGI: > 100 µM
[4]
  TGI: > 100 µM
[5]
  TGI: > 100 µM
[6]
  TGI: > 100 µM
[7]
  TGI: > 100 µM
[8]
  TGI: > 100 µM
[9]
  TGI: > 100 µM

## Cc1c(Cl)cccc1NC(=O)C(=O)C(C(=O)c1ccccc1-c1ccccc1)C1OC(=O)c2ccccc21 (stereo unspecified)
[1]
  TGI: 39.7 µM
[2]
  TGI: 27.1 µM
[3]
  TGI: 28.1 µM
[4]
  TGI: > 100 µM
[5]
  TGI: 25 µM
[6]
  TGI: 61.7 µM
[7]
  TGI: > 100 µM
[8]
  TGI: 77 µM
[9]
  TGI: > 100 µM

## Cn1cc(C(=O)c2ccccc2)c2ccccc2c1=O
[1]
  TGI: > 100 µM
[2]
  TGI: > 100 µM
[3]
  TGI: > 100 µM
[4]
  TGI: > 100 µM
[5]
  TGI: > 100 µM
[6]
  TGI: > 100 µM
[7]
  TGI: > 100 µM
[8]
  TGI: > 100 µM

## COc1ccc(C2=C(Cl)c3cc(OC)c(OC)cc3C2OC)cc1OC (stereo unspecified)
[1]
  TGI: > 100 µM
[2]
  TGI: > 100 µM
[3]
  TGI: > 100 µM
[5]
  TGI: > 100 µM
[6]
  TGI: > 100 µM
[7]
  TGI: > 100 µM
[8]
  TGI: > 100 µM
[9]
  TGI: > 100 µM

## O=C(NCCCCCCCCCCCCNC(=O)c1cccc2ccccc12)c1cccc2ccccc12
[1]
  TGI: > 100 µM
[2]
  TGI: > 100 µM
[3]
  TGI: 4.73 µM
[4]
  TGI: > 66.8 µM
[5]
  TGI: > 100 µM
[6]
  TGI: > 100 µM
[7]
  TGI: > 100 µM
[8]
  TGI: > 100 µM
[9]
  TGI: > 82.3 µM

## O=C1NC(Cc2ccc(O)cc2)C(=O)N2CCCC12 (stereo unspecified)
[1]
  TGI: > 100 µM
[2]
  TGI: > 100 µM
[3]
  TGI: > 100 µM
[4]
  TGI: > 100 µM
[5]
  TGI: > 100 µM
[6]
  TGI: > 100 µM
[7]
  TGI: > 100 µM
[8]
  TGI: > 100 µM
[9]
  TGI: > 100 µM

## Cc1nc(-n2nc(-c3ccccc3)cc2-c2ccccc2)sc1C(=O)/C=C/c1ccc(/C=C/C(=O)c2sc(-n3nc(-c4ccccc4)cc3-c3ccccc3)nc2C)cc1
[1]
  TGI: 39.1 µM
[2]
  TGI: 42.9 µM
[3]
  TGI: 33.7 µM
[4]
  TGI: > 100 µM
[5]
  TGI: 37.4 µM
[6]
  TGI: 51.6 µM
[7]
  TGI: > 100 µM
[8]
  TGI: 44.9 µM
[9]
  TGI: 99.8 µM

## Cc1cn(C2CC(O)C(COC(=O)c3ccccc3)O2)c(=O)[nH]c1=O (stereo unspecified)
[1]
  TGI: > 100 µM
[2]
  TGI: > 100 µM
[3]
  TGI: > 100 µM
[5]
  TGI: > 100 µM
[7]
  TGI: > 100 µM
[8]
  TGI: > 100 µM
[9]
  TGI: > 100 µM

## COC(=O)C(Cc1cc(OC)c(OC)c(OC)c1)C(=O)OC
[1]
  TGI: > 320 µM
[2]
  TGI: > 320 µM
[4]
  TGI: > 320 µM
[6]
  TGI: > 320 µM
[7]
  TGI: > 320 µM
[8]
  TGI: > 320 µM

## N.N.N.N.N.[Co+3].[I-].[N-]=[N+]=[N-]
[1]
  GI50: > 100 µM
  TGI: > 100 µM
[3]
  GI50: > 100 µM
  TGI: > 100 µM
[4]
  GI50: > 100 µM
  TGI: > 100 µM
[5]
  GI50: > 100 µM
  TGI: > 100 µM
[6]
  GI50: > 100 µM
  TGI: > 100 µM
[7]
  GI50: > 100 µM
  TGI: > 100 µM
[8]
  GI50: > 100 µM
  TGI: > 100 µM
[9]
  GI50: > 100 µM
  TGI: > 100 µM

## N#CCCN(c1ccc(C=Nc2ccccc2)cc1)S(=O)(=O)c1ccccc1
[1]
  TGI: > 100 µM
[3]
  TGI: > 100 µM
[4]
  TGI: > 100 µM
[5]
  TGI: > 100 µM
[6]
  TGI: > 100 µM
[7]
  TGI: > 100 µM
[8]
  TGI: > 100 µM
[9]
  TGI: > 100 µM

## N#Cc1cccc2c1Nc1ccccc1S2
[1]
  TGI: > 100 µM
[2]
  TGI: > 100 µM
[3]
  TGI: > 100 µM
[4]
  TGI: > 100 µM
[5]
  TGI: > 100 µM
[6]
  TGI: > 100 µM
[7]
  TGI: > 100 µM
[8]
  TGI: > 100 µM
[9]
  TGI: > 100 µM

## CN1c2ccccc2N(C(=O)c2ccc([N+](=O)[O-])cc2)C(CC(=O)O)c2cccn21 (stereo unspecified)
[1]
  TGI: > 100 µM
[2]
  TGI: > 100 µM
[3]
  TGI: > 100 µM
[4]
  TGI: > 100 µM
[6]
  TGI: > 100 µM
[7]
  TGI: > 100 µM
[8]
  TGI: > 100 µM
[9]
  TGI: > 100 µM

## C=C1CC[C@@H]2[C@](C)(COC(C)=O)[C@H](OC(C)=O)CC[C@@]2(C)[C@@H]1CC(Nc1ccc(S(=O)(=O)NC(C)=O)cc1)C1=CCOC1=O (stereo partly specified)
[1]
  GI50: 1.81 µM
  TGI: 4.82 µM
[2]
  GI50: 1.96 µM
  TGI: 4.69 µM
[3]
  GI50: 2.39 µM
  TGI: 7.77 µM
[4]
  GI50: 9.31 µM
  TGI: 18.7 µM
[5]
  GI50: 1.67 µM
  TGI: 3.66 µM
[6]
  GI50: 8.78 µM
  TGI: 20.5 µM
[7]
  GI50: 2.25 µM
  TGI: 8.42 µM
[10]
  GI50: 2.79 µM
  TGI: 10.6 µM
